Measurements: patent EP1333824B1, “TREATMENT OF SEXUAL DYSFUNCTION WITH BOMBESIN RECEPTOR ANTAGONISTS” (Warner-Lambert Company LLC, priority 2000, dated 2002)

Key:
conscious male rat = assay: Penile intracavernosal pressure in the conscious male rat (telemetry); format: in vivo
Protocol: In addition to treating women with FSD, bombesin antagonists will be useful in treating male erectile dysfunction (MED. Both the non-selective BB1/2 antagonists (Compound 1; 10mg/kg sc) and the selective BB1 receptor antagonist (Compound 3; 15mg/kg sc) is pro-erectile in a conscious rat model of penile erection (Figures 24 and 25). Erectile responses were recorded by measuring intracavernosal pressure using surgically implanted telemetric device. The specific details the surgical procedures, data acquisition and analysis can be found in detail in Bemabe 1999.
Compound 1 and compound 3 were dissolved in 50% β-cyclodextrin in saline. They were administered at a dose of 15mg/kg subcutaneously (sc). […] These increases equate to penile erection. Both Compounds 1 and 3 induced a number of erections in a similar manner to those observed with apomorphine or melanotan-II - both of which are clinically proven agents that are effective in the treatment of MED. Moreover the amplitude of the increases observed were similar to those observed with apomorphine or melanotan-II. The mechanism of action is thought to be similar to the effects on female genital flow ie CNS potentiation of the descending neuronal pathways that control penile erection.

[1] = system: Female New Zealand rabbits; assay: Pelvic nerve-stimulated female genital blood flow, anaesthetised rabbit model of sexual arousal; format: in vivo
Protocol: Female New Zealand rabbits (~2.5kg) were pre-medicated with a combination of Medetomidine (Domitor®) 0.5ml/kg i.m., and Ketamine (Vetalar®) 0.25ml/kg i.m. whilst maintaining oxygen intake via a face mask. The rabbits were tracheotomised using a Portex™ uncuffed endotracheal tube 3 ID., connected to ventilator and maintained at a ventilation rate of 30-40 breaths per minute, with an approximate tidal volume of 18-20 ml, and a maximum airway pressure of 10 cm H2O. Anaesthesia was then switched to Isoflurane and ventilation continued with O2 at 21/min. The right marginal ear vein was cannulated using a 23G or 24G catheter, and Lactated Ringer solution perfused at 0.5ml/min. The rabbit was maintained at 3% Isoflurane during invasive surgery, dropping to 2% for maintenance anaesthesia.
The left groin area of the rabbit was shaved and a vertical incision was made approximately 5cm in length along the thigh. The femoral vein and artery were exposed, isolated and then cannulated with a PVC catheter (17G) for the infusion of drugs and compounds. Cannulation was repeated for the femoral artery, inserting the catheter to a depth of 10cm to ensure that the catheter reached the abdominal aorta. This arterial catheter was linked to a Gould system to record blood pressure. Samples for blood gas analysis were also taken via the arterial catheter. Systolic and diastolic pressures were measured, and the mean arterial pressure calculated using the formula (diastolic x2 + systolic) ö3. Heart rate was measured via the pulse oxymeter and Po-ne-mah data acquisition software system (Ponemah Physiology Platform, Gould Instrument Systems Inc). A ventral midline incision was made into the abdominal cavity. The incision was about 5cm in length just above the pubis. The fat and muscle was bluntly dissected away to reveal the hypogastric nerve which runs down the body cavity. It was essential to keep close to the side curve of the pubis wall in order to avoid damaging the femoral vein and artery which lie above the pubis. The sciatic and pelvic nerves lie deeper and were located after further dissection on the dorsal side of the rabbit. Once the sciatic nerve is identified, the pelvic nerve was easily located. The term pelvic nerve is loosely applied; anatomy books on the subject fail to identify the nerves in sufficient detail. However, stimulation of the nerve causes an increase in vaginal and clitoral blood flow, and innervation of the pelvic region. The pelvic nerve was freed away from surrounding tissue and a Harvard bipolar stimulating electrode was placed around the nerve. […] A frequency response curve was determined at the start of each experiment in order to determine the optimum frequency to use as a sub-maximal response, normally 4Hz. […]

human NMB receptor (BB1) = target: T1, human NMB receptor (BB1) (Homo sapiens, UniProt P28336); assay: BB1 binding assay ([125I][Tyr4]bombesin, CHO-K1 cell membranes)
T1 construct: expressed in transfected cells
T1 sequence (P28336 whole entry): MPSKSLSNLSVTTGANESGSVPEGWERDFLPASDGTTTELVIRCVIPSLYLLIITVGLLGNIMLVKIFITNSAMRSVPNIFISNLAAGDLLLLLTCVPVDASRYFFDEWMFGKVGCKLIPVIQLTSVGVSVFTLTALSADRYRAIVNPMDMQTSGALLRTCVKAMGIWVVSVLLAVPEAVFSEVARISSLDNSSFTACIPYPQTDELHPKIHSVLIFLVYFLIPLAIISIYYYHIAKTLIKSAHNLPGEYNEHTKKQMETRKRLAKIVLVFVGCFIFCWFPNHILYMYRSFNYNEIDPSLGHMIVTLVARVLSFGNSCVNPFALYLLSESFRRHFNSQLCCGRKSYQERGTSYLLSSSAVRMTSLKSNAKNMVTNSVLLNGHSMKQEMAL
Protocol: (§1) In the following experiments, measurement of BB1 and BB2 binding was as follows. […] The final pellet was resuspended in assay buffer to a final cell concentration of 1.5 × 10^5/mL. […] Nonspecific binding was defined by 1µM bombesin. […] Radioactivity bound was determined using a gamma counter.
(§2) All competition data was analysed using nonlinear regression utilizing iterative curve-plotting procedures in Prism® (GraphPad Software Inc., San Diego, USA).

human GRP receptor (BB2) = target: T2, human GRP receptor (BB2) (Homo sapiens, UniProt P30550); assay: BB2 binding assay ([125I][Tyr4]bombesin, CHO-K1 cell membranes)
T2 construct: expressed in transfected cells
T2 sequence (P30550 whole entry): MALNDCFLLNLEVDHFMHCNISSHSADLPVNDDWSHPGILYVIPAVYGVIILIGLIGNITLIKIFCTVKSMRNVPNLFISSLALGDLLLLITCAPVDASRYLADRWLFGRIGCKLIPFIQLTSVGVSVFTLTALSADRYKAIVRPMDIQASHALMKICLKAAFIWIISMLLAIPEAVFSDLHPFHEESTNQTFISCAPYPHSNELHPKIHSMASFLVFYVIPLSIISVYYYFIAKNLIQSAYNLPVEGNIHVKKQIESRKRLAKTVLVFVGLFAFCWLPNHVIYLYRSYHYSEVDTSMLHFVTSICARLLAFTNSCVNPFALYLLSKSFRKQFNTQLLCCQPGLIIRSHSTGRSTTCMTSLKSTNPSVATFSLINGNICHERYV
Protocol: as §1, §2

[2] = Table 7, N-terminal sulfonamide derivatives

In the case of `C[C@@](Cc1c[nH]c2ccccc12)(NC(=O)Nc1ccc([N+](=O)[O-])cc1)C(=O)NCC1(c2ccc(N)cc2)CCCCC1` [Compound 3, (2S)-N-{[1-(4-aminophenyl)cyclohexyl]methyl}-3-(1H-indol-3-yl)-2-methyl-2-{[(4-nitroanilino)-carbonyl]amino}propanamide], the “erectile response (penile erection)” value (conscious male rat; Compound 1 10mg/kg sc, Compound 3 15mg/kg sc) is reported as “pro-erectile”, the intracavernosal pressure (conscious male rat; one hour after 10mg/kg sc Compound 1, 45 minutes after 15mg/kg sc compound 3) is reported as “significant increases in intracavernosal pressure” and the “basal genital blood flow in the absence of PNS” value ([1]; 15mg/kg sc) is reported as “no effect”. The “pelvic-nerve stimulated (PNS) increases in genital (vaginal and clitoral) blood flow” value ([1]; 15mg/kg sc in 50% β-cyclodextrin in saline) was “potent enhancer”.
`C[C@@](Cc1c[nH]c2ccccc12)(NC(=O)c1ccccc1)C(=O)NCC1(c2ccccn2)CCCCC1` [Example 32, N-{(S)-2-(1H-Indol-3-yl)-1-methyl-1-[(1-pyridin-2-yl-cyclohexylmethyl)-carbamoyl]-ethyl}-benzamide] was tested, and the IC50 (human NMB receptor (BB1); Table 3, N-acyl derivatives) was 2.5 µM.
`Cc1ccc(C(=O)N[C@@](C)(Cc2c[nH]c3ccccc23)C(=O)NCC2(c3ccccn3)CCCCC2)cc1` [Example 33, N-{(S)-2-(1H-Indol-3-yl)-1-methyl-1-[(1-pyridin-2-yl-cyclohexylmethyl)-carbamoyl]-ethyl}-4-methyl-benzamide] showed an IC50 (human NMB receptor (BB1); Table 3, N-acyl derivatives) of 2.5 µM.
`CN(C)c1cccc(C(=O)N[C@@](C)(Cc2c[nH]c3ccccc23)C(=O)NCC2(c3ccccn3)CCCCC2)c1` [Example 42, Dimethylamino-N-{(S)-2-(1H-indol-3-yl)-1-methyl-1-[(1-pyridin-2-yl-cyclohexyl-methyl)-carbamoyl]-ethyl}-benzamide] was tested, and the IC50 (human GRP receptor (BB2); Table 3, N-acyl derivatives) was greater than 10 µM and the IC50 (human NMB receptor (BB1); Table 3, N-acyl derivatives) was 2.52 µM.
For “(S)-3-(1H-Indol-3-yl)-2-methyl-2-(nitro-trifluoromethyl-benzenesulfonylamino)-N-(1-pyridin-2-yl-cyclohexylmethyl)-propionamide [Example 167]”, the IC50 (human GRP receptor (BB2); [2]) was greater than 10 µM and the IC50 (human NMB receptor (BB1); [2]) was 0.758 µM.
